Experimental data taken from patent US20230103514A1, “A TOPICAL COMPOSITION COMPRISING AN EXTRACT OF COMBINED HERBS COMPRISING LONGANAE ARILLUS FOR THE SKIN REGENERATION AND THE TREATMENT OR ALLEVIATION OF SKIN WOUND AND THE USE THEREOF” (MEDIHELPLINE CO., LTD, priority 2020, published 2023).

Key:
TSLP = assay: Inhibitory effect on cytokine expression (RT-PCR, TNF alpha-induced HaCaT cells): TSLP; assay type: cell-based, human; settings: TNFα 50 ng/ml, extract 1 μg/ml, Dex 200 nM, non-induced = 1
Procedure: (§1) In order to determine the anti-inflammatory activity of inventive extract, following inhibition test of cytokine expression using HaCaT cell was performed according to the procedure disclosed in the literature (Jeong et al., 2019, J. Invest. Dermatol., May; 139 (5): pp1098-1109). ?
(§2) HaCaT cell (human epithelial keratinocyte cell, 300493, CLS) was inoculated into DMEM medium containing 10% Fetal bovine serum, 100 units/ml of penicillin, 100 μg/ml of streptomycin (D6429, Sigma-Aldrich Co. Ltd) and was incubated in the incubator (HERA cell 150i, Thermo Fisher Scientific Co. Ltd.) maintaining optimum humidity (85-95%) and 5% CO2 atmosphere.
(§3) For performing gene expression test, the incubated cells were transferred to 12 wells and 50 ng/ml of TNF alpha (RC214-12, Biobasic Co. Ltd) was treated therewith for 1 hour to induce inflammatory response.
(§4) 1 hour after inducing the inflammation, 1 μg/ml of inventive extract prepared in Examples was treated with identical medium and subjected to incubation for 1 hour. After the incubation, RNA (FATRR-001, Favorgen) was extracted from the cell and cDNA was synthesized from the RNA using by cDNA synthesis kit (RRO36A, TAKARA). […]

IL-1β = assay: Inhibitory effect on cytokine expression (RT-PCR, TNF alpha-induced HaCaT cells): IL-1β; assay type: cell-based, human; settings: TNFα 50 ng/ml, extract 1 μg/ml, Dex 200 nM, non-induced = 1
Procedure: as §1, §2, §3, §4

C[C@@H]1C[C@H]2[C@@H]3CCC4=CC(=O)C=C[C@]4(C)[C@@]3(F)[C@@H](O)C[C@]2(C)[C@@]1(O)C(=O)CO [Dex, Dexamethasone]
TSLP expression (quantitative RT-PCR) (TSLP): 52.49
IL-1β expression (quantitative RT-PCR) (IL-1β): 1.081
